The results in this text go back to paper PMC10541198, “Specific quinone reductase 2 inhibitors reduce metabolic burden and reverse Alzheimer’s disease phenotype in mice” (The Journal of Clinical Investigation, 2023).

In series [1] the target is T1, QR2 (Homo sapiens, UniProt P16083).
T1 construct: purchased Sigma-Aldrich
T1 sequence (P16083 1-231): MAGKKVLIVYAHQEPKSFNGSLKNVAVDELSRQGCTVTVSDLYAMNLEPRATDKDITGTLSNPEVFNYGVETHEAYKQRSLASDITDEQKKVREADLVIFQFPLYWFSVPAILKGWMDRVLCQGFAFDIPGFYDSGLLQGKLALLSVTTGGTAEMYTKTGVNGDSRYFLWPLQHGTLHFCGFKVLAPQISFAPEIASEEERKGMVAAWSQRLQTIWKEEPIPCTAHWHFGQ
The series can be described thus: QR2 activity assay, BNAH fluorescence (standard/primary). Type of series: biochemical. As to conditions: Figure 2D; readout not stated. The text has this: (§1) A drug discovery campaign strategy was initiated to screen compounds for QR2-specific, cell-free inhibition and in vitro activity, followed by SAR optimization (Figure 2A) to achieve highly specific and potent QR2 inhibitor synthesis. In order to establish a varied and chemically amenable starting point, we developed a high-throughput QR2 assay (Supplemental Methods) that we screened against a library with approximately 200,000 compounds. […] Compounds that replicated the initial hit result were then assayed similarly against QR1 to evaluate compound specificity (Figure 2B). From the HTS, a chemically tractable and attractive series of compounds containing a sulfone flanked by an amine and a heterocycle were identified and selected for SAR development (Figure 2C, Supplemental Methods, Supplemental Table 1, and Supplemental Table 2). […]
High Throughput Screen (H TS)
The enzymatic activity of QR 2 (10 nM) was measur ed using menadione (both Sigm a -Aldrich) as subst r at e and dihydro- benzylnicotinamide (BNAH; Tocris) as co-substrate(62). The reaction was performed in 50 mM Tri s HCl, 150 mM NaCl 0.01%Tween- 20 pH=8.5 (Sigma-Aldrich) at r oom tem per atur e. Briefl y, 3 µL of menadione alone (200 µM) or a mixture of menadione and QR2 (200 µM of […]
(§2) menadione and 10 nM of QR2) were dispensed in 1536-well black Nunc plates (Thermo-Fisher) using aMultidrop™ Combi Reagent Dispenser (Thermo-Fisher) and pre-incubated with compounds for 10min. BNAH (200µM) was t hen added (3 µL) to the reaction using a BioNex Solutions BNX1536plate washer and the plates were incubated for another 10 min. Fluorescence intensity was followed in a PHERAstar FS multi-mode plate reader (BMG Labtech) us i ng an optic module with excitation at 360 nm and emission at 470 nm. The initial HTS includedapproximately 200,000 compounds at a single concentrationof 5 µM. The chemical libraries used were Selleck Chemicals Bioactives, the Drug-like set from Enamine, HitFinder collection from Maybridge, Spectrum Collection from Microsource, Lopa c from Sigma -Aldrich and the diversity set s from Chem Div and Che m Br idge .
Initial ‘‘hit’’ compounds were defined as causing >30% reduction of enzyme activity. Compounds suspected to be fluorescent were re -assayed in an absorbance assay at 350 nm using the same reaction but in a higher volume (100 µL), in a transparent plate (Greiner Bio- One). ‘‘Hit’’ compounds resulting from both the fluorescence and absorbance assay wer e t ested in a concentration- response, and IC50 values were de t er mi ne d. In parallel, the same concentration response methodologywas appliedin a selectivity assay where QR2 enzymewas replaced byQR1 […]
Chromatography System, with UV/Vis detector 2489, using XBridge® Prep C18 10 μm 10x250 mm […]
was monitored by Wat er s UPLC-MS system: Acquity UPLC® H class with PDA detector, and using […]

Series [2] addresses T2, QR1 (Homo sapiens, UniProt P15559).
T2 construct: purchased Sigma-Aldrich
The series can be described thus: QR1 selectivity assay, fluorescence. As to conditions: Figure 2D; readout not stated. Type of series: biochemical.
From the text: as §1, §2
Initial ‘‘hit’’ compounds were defined as causing >30% reduction of enzyme activity. Compounds suspected to be fluorescent were re -assayed in an absorbance assay at 350 nm using the same reaction but in a higher volume (100 µL), in a transparent plate (Greiner Bio- One). ‘‘Hit’’ compounds resulting from both the fluorescence and absorbance assay wer e t ested in a concentration- response, and IC50 values were de t er mi ne d. In parallel, the same

The nature of series [3]: Solubility in water / saline. The series is classed as physicochemical.

Usually IC50 stands for the point on the concentration scale where inhibition reaches its midpoint.

The structures appear in SMILES notation. Bounds are passed on as bounds.

T2 sequence (P15559 whole entry): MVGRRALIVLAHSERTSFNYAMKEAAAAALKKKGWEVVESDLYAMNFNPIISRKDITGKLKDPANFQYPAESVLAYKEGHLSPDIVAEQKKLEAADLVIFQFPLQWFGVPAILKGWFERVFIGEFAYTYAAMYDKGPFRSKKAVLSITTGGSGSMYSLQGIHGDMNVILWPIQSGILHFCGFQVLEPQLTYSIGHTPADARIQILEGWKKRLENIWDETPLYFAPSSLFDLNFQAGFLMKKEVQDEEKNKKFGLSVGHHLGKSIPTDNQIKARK

As to `Cc1ccn2cc(-c3ccc(C)c(S(=O)(=O)NCc4cccnc4)c3)nc2c1` [YB-812], the IC50 is 6.92 µM in series [1] and more than 9.99 µM in series [2].

As for `Cc1ccc(-c2cn3cccc(C)c3n2)cc1S(=O)(=O)N1CCN(C(=O)c2ccco2)CC1` [YB-792], the IC50 stood at 0.008 µM in series [1] and 3.33 µM in series [2].

Regarding `Cc1ccc(-c2cn3cccc(C)c3n2)cc1S(=O)(=O)N1CCN(C)CC1` [YB-540], in series [1], half-maximal inhibition (IC50) required 0.21 µM. Moreover, the solubility in water result in series [3] is given as “water soluble”.

Take `Cc1ccc(-c2nnc(-c3ccccc3)o2)cc1S(=O)(=O)N1CCN(C(=O)c2ccco2)CC1` [YB-789]: the values for the IC50 in series [1] and in series [2] were 5.71 µM and more than 9.99 µM, respectively.

For `Cc1ccn2cc(-c3ccc(C)c(S(=O)(=O)Nc4ccc(Cl)cc4)c3)nc2c1` [YB-816], the IC50 in series [1] and in series [2] was more than 9.99 µM each time.

`Cc1nc(-c2ccc(C)c(S(=O)(=O)N3CCC(C)CC3)c2)cs1` [YB-104] returned an IC50 in series [1] of 7.39 µM.

Take `Cc1ccc(-c2nnc(-c3ccccc3)o2)cc1S(=O)(=O)NCCCN1CCCC1=O` [YB-818]: the IC50 in series [1] and in series [2] was more than 9.99 µM each time.
